Tested on: striped stem borer (SSB)
Assay: Laboratory bioassay, rice stem dipping method, against striped stem borer on rice
Settings: for Numbers of Dead SSB: four replicates
From the text: Cotoxicity Coefficient (CTC) value was used to determine an existence of synergic effect between spinetoram and methoxyfenozide in the formulated pesticidal composition.
The CTC value of the formulated composition was used to determine the biological responses to the treatment: additive, synergism, or antagonism. The CTC value of more than 120 indicates a synergistic effect between the combined pesticidal compounds. The CTC value of about 80 to 120 indicates an additive effect between the combined pesticidal compounds. The CTC value of less than 80 indicates antagonistic effect between the combined pesticidal compounds
Pesticidal compositions were prepared by thoroughly mixing spinetoram and methoxyfenozide at various weight ratios as shown in TABLE 3.
The effectiveness of the pesticidal compositions for controlling of striped stem borer on rice was determined using laboratory bioassays, and compared to those of three controls. In the first control, only spinetoram was used for the treatment. In the second control, only methoxyfenozide was used for the treatment. In the third control, no pesticide was used.
The rice stem dipping method based on Standard Method for Bioassay Test (Chinese Standard Method NY/T1154.4-2006: Continuous Immersion Test for Insecticide Systemic Activity) was used to conduct the laboratory bioassays.
Five stems of rice were dipped into the solutions of pestidical compositions for 10 seconds and then taken out for drying in the air. The treated stems were placed into glass tubes. Treatment with water, solvent, and emulsifier alone was used as reference check. There were four replicates for each treatment. About 10±1 larvae of third-instar striped stem borer were placed into each glass tube. The openings of the tubes were covered with gauze. Laboratory bioassays were conducted at room temperature. The number of dead larvae was recorded at 72 hours following the treatment.

[1] = Chilo suppressalis, in Oryza sativa, 72 h

## COc1cccc(C(=O)NN(C(=O)c2cc(C)cc(C)c2)C(C)(C)C)c1C [Methoxyfenozide, methoxyfenozide]
[1]
  LC50: 21.1 µg/mL
  mortality at 2.5 µg/mL: 4.77%
  mortality at 5 µg/mL: 13.6%
  mortality at 10 µg/mL: 28.4%
  mortality at 20 µg/mL: 43.9%
  mortality at 40 µg/mL: 67.5%
  mortality at 80 µg/mL: 87.5%
Mass concentration 2.5 mg/L, 72 hours
  Numbers of Dead SSB: 0.5
Mass concentration 5 mg/L, 72 hours
  Numbers of Dead SSB: 1.5
Mass concentration 10 mg/L, 72 hours
  Numbers of Dead SSB: 3
Mass concentration 20 mg/L, 72 hours
  Numbers of Dead SSB: 7
Mass concentration 40 mg/L, 72 hours
  Numbers of Dead SSB: 6.75
Mass concentration 80 mg/L, 72 hours
  Numbers of Dead SSB: 8.75
third-instar larvae, 72 hours
  LC90: 107.74 mg/L

## spinetoram
Mass concentration 0.125 mg/L, 72 hours
  Numbers of Dead SSB: 0.5
Mass concentration 0.125 mg/L, third-instar larvae, 72 hours
  Mortality (%): 4.55%
Mass concentration 0.25 mg/L, 72 hours
  Numbers of Dead SSB: 2
Mass concentration 0.25 mg/L, third-instar larvae, 72 hours
  Mortality (%): 18.41%
Mass concentration 0.5 mg/L, 72 hours
  Numbers of Dead SSB: 4
Mass concentration 0.5 mg/L, third-instar larvae, 72 hours
  Mortality (%): 37.73%
Mass concentration 1 mg/L, 72 hours
  Numbers of Dead SSB: 6.75
Mass concentration 1 mg/L, third-instar larvae, 72 hours
  Mortality (%): 64.09%
Mass concentration 2 mg/L, 72 hours
  Numbers of Dead SSB: 8.5
Mass concentration 2 mg/L, third-instar larvae, 72 hours
  Mortality (%): 81.14%
Mass concentration 4 mg/L, 72 hours
  Numbers of Dead SSB: 9.75
Mass concentration 4 mg/L, third-instar larvae, 72 hours
  Mortality (%): 95.23%
third-instar larvae, 72 hours
  LC50: 0.71 µg/mL
  LC90: 2.76 mg/L
